Experiments:
[1] = molecular target: Factor XIa (Homo sapiens (Human), UniProt P03951); assay: Factor XIa enzyme inhibition assay (dose response, fluorogenic AMC substrate); format: biochemical; details: read-out: hFXIa IC50
Procedure, shortened: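 Fluorogenic progress curves (30 min, 1-min reads, 30° C) were recorded for 0.25 nM FXIa cleaving 50 μM Glp-Pro-Arg-AMC in Hepes pH 7.4 buffer with NaCl and Tween 20. Compounds were serially two-fold diluted, and IC50 was fitted with a Hill equation.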

[2] = molecular target: Factor Xa (Homo sapiens (Human), UniProt P00742); assay: Dose response assay for protease inhibitors: Factor Xa; format: biochemical; details: selectivity, Factor Xa over Factor XIa
Procedure, shortened: (§1)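 Glp-Pro-Arg-AMC substrate (thrombin, trypsin) or Pro-Phe-Arg-AMC/Boc-Leu-Gly-Arg-AMC (Factor Xa), diluted to 100 μM, in 20 mM Hepes pH 7.4, 150 mM NaCl, 0.02% Tween 20; enzyme diluted to 0.5 nM before addition. Two-fold serial compound dilutions; kinetic reads at 30° C. Data yield IC50 and Kon.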

[3] = Caco-2 cell permeability assay; format: in vitro ADME, human; details: human, 37° C.; for Papp A→B at 60 min, 10 μM: Caco-2, apical to basolateral; for Papp B→A at 40 min, 10 μM: Caco-2, basolateral to apical
Protocol: The following procedure was used to determine the ability of a test compound to cross Caco-2 cells (human intestinal epithelial cells derived from a colorectal adenocarcinoma). The cells were seeded at 1×10^5 cells/cm^2 in 96-well Multiscreen™ plates (Millipore). Permeability assays were performed with the cells at days 21-25 post-seeding. Cells are typically used for 15 consecutive passages in culture.
This assay can be performed in either the apical to basolateral (A-B) or basolateral to apical (B-A) direction. The test compound was prepared at 10 μM in HBSS-MES (pH 6.5) or HBSS-HEPES (pH 7.4) with a final DMSO concentration of 1%. The working solution was then centrifuged and the supernatant added to the donor side. The assay plate was incubated at 37° C. with gentle shaking for 60 min or 40 min for the A-B or B-A assay, respectively. Samples were aliquoted from the donor side at time zero and the end point, and from the receiver side at the end point.
Reference compounds, propranolol (highly permeable), labetalol (moderately permeable), ranitidine (poorly permeable), and colchicine (P-glycoprotein substrate) were included in each assay.
Samples are analyzed by HPLC-MS/MS using selected reaction monitoring. The HPLC system consists of a binary LC pump with autosampler, a C-18 column, and a gradient.
The apparent permeability coefficient (Papp) of the test compound (Equation 2) and its recovery (Equation 3) are calculated as follows:
[formula] wherein A is the surface area of the cell monolayer (0.11 cm^2), C is concentration of the test compound expressed as peak area, D denotes donor, and R is receiver. “0”, “mid,” and “end” denote time at zero, mid-point, and end of the incubation, respectively. Δt is the incubation time. V is the volume of the donor or receiver.
This is most likely due to non-specific binding or degradation.

[4] = molecular target: Thrombin (Homo sapiens (Human), UniProt P00734); assay: Dose response assay for protease inhibitors: thrombin; format: biochemical; details: selectivity, thrombin over Factor XIa
Procedure, shortened: as §1

[5] = tested on: Trypsin; assay: Dose response assay for protease inhibitors: trypsin; format: biochemical; details: selectivity, trypsin over Factor XIa
Procedure, shortened: as §1

[6] = Metabolic stability in dog hepatocytes; format: in vitro ADME; details: pooled cryopreserved hepatocytes; beagle dog hepatocytes, 2 μM compound; read-out: Dog Hepatocyte Stability (t1/2)
Protocol: The following procedure was used to determine the stability of test compounds in beagle dog hepatocytes in a 96-well plate format. The test compounds, including the controls, imipramine and 7-ethoxycoumarin, were dissolved at 10 mM in DMSO, followed by further 5-fold dilution with DMSO to 2 mM. Pooled cryopreserved beagle dog hepatocytes were thawed and transferred into complete medium. Cells were gently centrifuged (700 rpm for 5 min) and the pellet rinsed with KHB (Krebs Henseleit buffer). Cells were resuspended, counted using Trypan blue, and adjusted to 1 million cells/mL in KHB buffer. The 2 mM compound stock solutions were diluted 10-fold with acetonitrile, followed by a further 50-fold dilution with KHB buffer. 200 μL of these compound solutions were transferred to 96-well polypropylene assay plates and an equal volume of the hepatocyte solution was added and mixed to initiate the reaction (final assay concentrations were 2 μM compound and 500,000 cells/mL). Assay plates were incubated at 37° C. in 5% CO2 with gentle agitation. 50 μL aliquots were removed at multiple time points out to 180 minutes and quenched with 6 volumes of cold acetonitrile (containing 250 ng/mL of carbutamide and chrysin as internal standards) to terminate the reaction and precipitate protein. Quenched samples were maintained on ice. The quenched samples were centrifuged at 2000×g (3100 rpm) for 10 minutes at 4° C. 50 μL aliquots of the supernatants were removed and diluted with 100 μL Milli-Q water to reduce the % organic content prior to bioanalysis by LC-MS/MS. Peak areas corresponding to the test compound were recorded. The compound remaining was calculated by comparing the peak area at each time point to time zero. Data were analyzed and results were calculated using Microsoft Excel 2010.

Chain of Factor XIa (P03951 388-625): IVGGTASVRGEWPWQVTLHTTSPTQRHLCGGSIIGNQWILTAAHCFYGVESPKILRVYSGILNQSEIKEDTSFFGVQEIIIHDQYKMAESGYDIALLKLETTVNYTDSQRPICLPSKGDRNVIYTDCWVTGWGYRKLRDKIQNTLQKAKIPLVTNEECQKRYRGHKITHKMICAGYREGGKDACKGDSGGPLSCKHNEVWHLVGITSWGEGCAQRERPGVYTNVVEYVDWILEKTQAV
Chain of Factor XIa (P03951 19-387 partner): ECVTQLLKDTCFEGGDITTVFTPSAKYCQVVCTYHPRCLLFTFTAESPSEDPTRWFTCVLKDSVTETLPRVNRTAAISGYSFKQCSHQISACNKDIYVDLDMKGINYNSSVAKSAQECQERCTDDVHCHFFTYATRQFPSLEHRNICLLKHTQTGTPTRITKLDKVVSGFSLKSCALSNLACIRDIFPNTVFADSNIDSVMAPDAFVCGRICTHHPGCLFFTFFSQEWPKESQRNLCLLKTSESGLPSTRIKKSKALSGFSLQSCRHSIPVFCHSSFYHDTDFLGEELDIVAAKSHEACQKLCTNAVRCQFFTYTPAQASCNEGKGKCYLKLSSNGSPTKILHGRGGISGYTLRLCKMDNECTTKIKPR
Chain of Factor Xa (P00742 235-488): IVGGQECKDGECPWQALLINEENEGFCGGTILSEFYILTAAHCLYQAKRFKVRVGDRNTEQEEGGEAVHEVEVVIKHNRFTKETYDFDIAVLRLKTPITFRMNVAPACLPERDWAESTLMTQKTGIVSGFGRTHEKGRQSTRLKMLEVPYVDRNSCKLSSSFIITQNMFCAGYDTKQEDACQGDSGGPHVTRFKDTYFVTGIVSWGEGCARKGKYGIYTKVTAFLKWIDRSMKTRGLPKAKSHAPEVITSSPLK
Chain of Factor Xa (P00742 41-179 partner): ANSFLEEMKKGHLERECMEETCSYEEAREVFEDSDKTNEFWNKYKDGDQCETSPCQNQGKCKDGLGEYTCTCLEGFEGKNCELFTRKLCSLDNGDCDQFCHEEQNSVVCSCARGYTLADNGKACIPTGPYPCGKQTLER

IC50 [1] [nM]	Ratio: FXa/FXIa [2]	Papp A→B at 60 min, 10 μM [3] [×10⁻⁶ cm/s]	Papp B→A at 40 min, 10 μM [3] [×10⁻⁶ cm/s]	Ratio: Thrombin/FXIa [4]	half-life at 2 μM [6] [h]	Molecule	Ratio: Trypsin/FXIa [5]
< 10	H (“H” indicates 101-1000)	11 to 30	11 to 30	H (“H” indicates 101-1000)	–	CC[C@@H](NC(=O)N1C(=O)[C@H](Cc2ccnc(N)c2)[C@H]1C(=O)N(C)c1ccsc1)c1ccccc1 [Compound 1-9, (2S,3R)-3-((2-aminopyridin-4-yl)methyl)-N2-(thiophen-3-yl)-N1-((R)-1-phenylpropyl)-N2-methyl-4-oxoazetidine-1,2-dicarboxamide]	G (“G” indicates 1-100)
< 10	H (“H” indicates 101-1000)	< 10	11 to 30	H (“H” indicates 101-1000)	–	CC[C@@H](NC(=O)N1C(=O)[C@H](Cc2ccnc(N)c2)[C@H]1C(=O)N(C)c1cnn(C)c1)c1cccc(Cl)c1 [Compound 1-11, (2S,3R)-3-((2-aminopyridin-4-yl)methyl)-N2-(1-methyl-1H-pyrazol-4-yl)-N1-((R)-1-(3-chlorophenyl)propyl)-N2-methyl-4-oxoazetidine-1,2-dicarboxamide]	G (“G” indicates 1-100)
< 10	I (“I” indicates > 500)	–	–	H (“H” indicates 101-1000)	> 4	CC[C@@H](NC(=O)N1C(=O)[C@H](Cc2cc(C)nc(N)c2)[C@H]1C(=O)N(C)c1ccn(C)n1)c1ccccc1 [Compound 1-48, (2S,3R)-3-((2-amino-6-methylpyridin-4-yl)methyl)-N2-(1-methyl-1H-pyrazol-3-yl)-N1-((R)-1-phenylpropyl)-N2-methyl-4-oxoazetidine-1,2-dicarboxamide]	G (“G” indicates 1-100)
< 10	I (“I” indicates > 500)	–	–	H (“H” indicates 101-1000)	–	CC[C@@H](NC(=O)N1C(=O)[C@H](Cc2cc(C)nc(N)c2)[C@H]1C(=O)N(C)c1cnn(C)c1)c1cc(C)cc(C)c1 [Compound 1-185, (2S,3R)-3-((2-amino-6-methylpyridin-4-yl)methyl)-N2-(1-methyl-1H-pyrazol-4-yl)-N1-((R)-1-(3,5-dimethylphenyl)propyl)-N2-methyl-4-oxoazetidine-1,2-dicarboxamide]	G (“G” indicates 1-100)
< 10	I (“I” indicates > 500)	–	–	H (“H” indicates 101-1000)	–	CC[C@@H](NC(=O)N1C(=O)[C@H](Cc2ccnc(N)c2)[C@H]1C(=O)N(C)c1nccn1C)c1cc(F)c(F)c(F)c1 [Compound 1-193, (2S,3R)-3-((2-aminopyridin-4-yl)methyl)-N2-(1-methyl-1H-imidazol-2-yl)-N1-((R)-1-(3,4,5-trifluorophenyl)propyl)-N2-methyl-4-oxoazetidine-1,2-dicarboxamide]	G (“G” indicates 1-100)
< 10	I (“I” indicates > 500)	–	–	H (“H” indicates 101-1000)	–	CC[C@@H](NC(=O)N1C(=O)[C@H](Cc2ccnc(N)c2)[C@H]1C(=O)N(C)c1nccn1C)c1ccc(F)c(C)c1F [Compound 1-194, (2S,3R)-3-((2-aminopyridin-4-yl)methyl)-N2-(1-methyl-1H-imidazol-2-yl)-N1-((R)-1-(2,4-difluoro-3-methylphenyl)propyl)-N2-methyl-4-oxoazetidine-1,2-dicarboxamide]	H (“H” indicates 101-1000)
< 10	I (“I” indicates > 500)	–	–	I (“I” indicates > 500)	–	CC[C@@H](NC(=O)N1C(=O)[C@H](Cc2ccnc(N)c2)[C@H]1C(=O)N(C)c1ccn(C)n1)c1cc(F)c(F)c(F)c1 [Compound 1-197, (2S,3R)-3-((2-aminopyridin-4-yl)methyl)-N2-(1-methyl-1H-pyrazol-3-yl)-N1-((R)-1-(3,4,5-trifluorophenyl)propyl)-N2-methyl-4-oxoazetidine-1,2-dicarboxamide]	H (“H” indicates 101-1000)
< 10	I (“I” indicates > 500)	–	–	H (“H” indicates 101-1000)	–	CC[C@@H](NC(=O)N1C(=O)[C@H](Cc2ccnc(N)c2)[C@H]1C(=O)N(C)c1ccn(C)n1)c1ccc(F)c(C)c1F [Compound 1-198, (2S,3R)-3-((2-aminopyridin-4-yl)methyl)-N2-(1-methyl-1H-pyrazol-3-yl)-N1-((R)-1-(2,4-difluoro-3-methylphenyl)propyl)-N2-methyl-4-oxoazetidine-1,2-dicarboxamide]	H (“H” indicates 101-1000)
< 10	I (“I” indicates > 500)	–	–	H (“H” indicates 101-1000)	–	CC[C@@H](NC(=O)N1C(=O)[C@H](Cc2ccnc(N)c2)[C@H]1C(=O)N(C)c1cnn(C)c1)c1cc(F)c(F)c(F)c1 [Compound 1-199, (2S,3R)-3-((2-aminopyridin-4-yl)methyl)-N2-(1-methyl-1H-pyrazol-4-yl)-N1-((R)-1-(3,4,5-trifluorophenyl)propyl)-N2-methyl-4-oxoazetidine-1,2-dicarboxamide]	H (“H” indicates 101-1000)
< 10	I (“I” indicates > 500)	–	–	I (“I” indicates > 500)	–	CC[C@@H](NC(=O)N1C(=O)[C@H](Cc2ccnc(N)c2)[C@H]1C(=O)N(C)c1ccnn1C)c1ccc(F)c(C)c1F [Compound 1-200]	H (“H” indicates 101-1000)
< 10	H (“H” indicates 101-1000)	–	–	H (“H” indicates 101-1000)	–	(2S,3R)-3-((2-aminopyridin-4-yl)methyl)-N2-(1-methyl-1H-pyrazol-3-yl)-N1-((S)-1-(3-chlorophenyl)ethyl)-N2-methyl-4-oxoazetidine-1,2-dicarboxamide [Compound 1-33]	G (“G” indicates 1-100)

Molecule	IC50 [1] [nM]	Ratio: FXa/FXIa [2]	Papp A→B at 60 min, 10 μM [3] [×10⁻⁶ cm/s]	Papp B→A at 40 min, 10 μM [3] [×10⁻⁶ cm/s]	Ratio: Thrombin/FXIa [4]	half-life at 2 μM [6] [h]	Ratio: Trypsin/FXIa [5]
(2S,3R)-3-((2-aminopyridin-4-yl)methyl)-N2-(1-methyl-1H-imidazol-4-yl)-N1-((R)-1-cyclohexyl-2,2,2-trifluoroethyl)-N2-methyl-4-oxoazetidine-1,2-dicarboxamide [Compound 1-70]	< 10	I (“I” indicates > 500)	–	–	G (“G” indicates 1-100)	–	G (“G” indicates 1-100)

— patent publication US11691962B2 (eXIthera Pharmaceuticals, Inc., priority 2018, dated 2023)
